Experimental findings from US7166275B2, “Compositions containing phenethyl aryl esters as solubilizing agents for active organic compounds” (ISP Investments Inc., priority 2003, dated 2007) are described below.

The nature of data set [1]: Solubility of solid organic sunscreens (Escalol 517, Escalol 567) in various solvents. It counts as physicochemical. The conditions noted are these: solutions prepared at 50° C., stood 1 week at 25° C., seeded. The protocol: A small seed crystal was added at 25° C. to hasten equilibration.
Data set [2] can be described thus: Solubility of active compounds in 2-phenylethyl benzoate, determined by GLC. It counts as physicochemical. The conditions noted are these: for Solubility (soluble up to) in 2-phenylethyl benzoate: solvent 2-phenylethyl benzoate, 25° C. The protocol:
Predetermined weight/weight (w/w) solutions were prepared at 50° C. using a given solvent and Escalol® 517 or Escalol® 567. […] A small seed crystal was added at 25° C. to hasten equilibration. Solubility limits were determined by observation of the amount of solid present, and then more precisely by a GLC method (see Example 15).
5-Chloro-2-(2,4-dichlorophenoxy)phenol (Triclosan) has bacteriostatic properties and is used as a disinfectant and preservative in cosmetic and detergent preparations. It is soluble up to 69% w/w in 2-phenylethyl benzoate, as determined by GLC. Thus, 50% w/w and 60% w/w mixtures were homogeneous solutions at 25° C., but a 70% w/w solution prepared at 70° C. precipitated a small amount of solid when seeded at 25° C. and allowed to stand for 3 days.
An 80% w/w solution prepared from 8.002 g of Triclosan and 2.009 g of 2-phenylethyl benzoate precipitated a significant amount of solid at 25° C. A 23.3-mg sample of the supernatant was dissolved in 1.00 mL of chloroform and 1.00 μL was injected via automatic injector into a GLC instrument. The areas of the 2-phenylethyl benzoate and Triclosan peaks were 9381 and 12953, respectively. The mixture was heated at 70° C. until it was homogeneous, and an 18.2-mg sample was dissolved and injected in the same manner. […] (Note that the amount injected was 3.6 μg+14.6 μg=18.2 μg.) Therefore, under our GLC conditions the response factors were 1240 units/μg and 770 units/μg, respectively. Then, the respective amounts of each component in the supernatant were 9381/1240 =7.6 μg and 12953/770 =16.8 μg, which corresponds to 69% w/w Triclosan.

As to `O=C(OCCc1ccccc1)c1ccccc1C(=O)OCCc1ccccc1` [Di-2-phenylethyl phthalate, di-2-phenylethyl phthalate], the “Solubility of Escalol 517 in the solvent” value in data set [1] (solute Escalol 517 (avobenzone)) is 30 % w/w. For the same compound, in data set [1] (solute Escalol 567 (benzophenone-3)), the “Solubility of Escalol 567 in the solvent” value came to 31 % w/w.

Turning to `CCCN(CCC)c1c([N+](=O)[O-])cc(C(F)(F)F)c(N)c1[N+](=O)[O-]` [Prodiamine, 5-Dipropylamino-α,α,α-trifluoro-4,6-dinitro-o-toluidine], the “Solubility (soluble up to) in 2-phenylethyl benzoate/N-methylpyrrolidinone (1:1 w/w)” value in data set [2] (solvent 2-phenylethyl benzoate/N-methylpyrrolidinone (1:1 w/w)) stood at 24 % w/w. Further, the “Solubility (soluble up to) in 2-phenylethyl benzoate” value in data set [2] was 5 % w/w.

Regarding `Oc1cc(Cl)ccc1Oc1ccc(Cl)cc1Cl` [Triclosan, 5-Chloro-2-(2,4-dichlorophenoxy)phenol], the “Solubility (soluble up to) in 2-phenylethyl benzoate” value in data set [2] came out at 69 % w/w.
